The source of these data is the supplement of paper PMC5579334.

The subject of experiment [1] is HS-PSS. Briefly: drug sensitivity score (DSS, CellTiter-Glo viability, 72 h) (DSS (dimensionless)); higher = more sensitive; extreme values may be limits of the assay. In short, it runs like this:
(§1)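 For this screen, 384-well plates were preprinted with each compound at five concentrations in 10-fold steps and seeded with MPNST cell lines or primary human Schwann cells at 750–1000 cells per well. Incubation lasted 72 h at 37 °C, 5% CO2, and CellTiter-Glo ATP luminescence, scaled between vehicle and positive-control wells and averaged over duplicates where available, served as viability. Logistic fits with four parameters were applied. Relative IC50 (censored at the top concentration) and drug sensitivity score derive from these fits, and percent inhibition is at the top concentration.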
On the technique in general: In ATP-based viability assays light output follows the ATP content of the culture.

The subject of experiment [2] is HS-Sch-2. The experiment is described as above. In short, it runs like this:
as §1

For experiment [3], the system named is YST-1. Described as above. An outline of the steps:
as §1

Experiment [4] relates to HS-PSS. Nature of the experiment: drug sensitivity score (DSS, CellTox-Green cytotoxicity, 72 h) (DSS (dimensionless)); higher = more cytotoxic; extreme values may be limits of the assay. In short, it runs like this: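 MPNST cell lines and primary human Schwann cells were grown for 72 h at 37 °C in 384-well plates containing five 10-fold compound dilutions. CellTox-Green, added before seeding at a final 1:1000 dilution, gave fluorescence from DNA released by disrupted cells, and signals were scaled to vehicle and positive-control wells. Curves were fitted with a four-parameter logistic model. Drug sensitivity score and relative IC50 come from these fits, with IC50 censored at the top concentration.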

Experiment [5] has as its system HS-PSS. Nature of the experiment: % inhibition of CellTiter-Glo viability at highest tested concentration (72 h), relative to DMSO and benzethonium chloride controls; higher = more inhibition. An outline of the steps:
as §1

For experiment [6], the system named is HS-Sch-2. The description is as above. An outline of the steps:
as §1

Experiment [7] concerns YST-1. The description is as above. In short, it runs like this: as §1

SMILES strings stand for the structures.

Take `COc1ccc(-c2nc(N3CCOCC3)c3sc(CN(C)c4ncc(C(=O)NO)cn4)cc3n2)cn1` [CUDC-907] (max concentration tested 10000 nM): the drug sensitivity score was found to be 31.6 in experiment [1], 31.9 in experiment [2], 40.4 in experiment [3] and 19.2 in experiment [4]. Further, the figures for the “% inhibition” value in experiment [5], in experiment [6] and in experiment [7] were 98.6%, 99.5% and 100%, respectively.

Turning to `O=C(c1cccc(Cl)c1F)N1CCN(Cc2cccc(Nc3nccs3)n2)CC1` [MK-8745] (max concentration tested 2500 nM), the drug sensitivity score in experiment [1] is 0.32; in experiment [2] it was 3.17; in experiment [3], 4.21; in experiment [4] it was 0.89. Further, the “% inhibition” value in experiment [5] is 17.5%; in experiment [6], 48.5%; in experiment [7], 36.5%.

With `COc1ccc2c(OCc3nnc4ccc(-c5ccccc5)nn34)ccnc2c1` [AMG-208] (max concentration tested 2500 nM), the drug sensitivity score was 0.98 in experiment [1], 0 in experiment [2], 0 in experiment [3] and 0 in experiment [4]. Also, the “% inhibition” value is 9.98% in experiment [5], 7.53% in experiment [6] and -2.81% in experiment [7].

With `COC(=O)c1ccc2c(c1)[nH]c1ncnc(NCCCN3CCCCC3)c12` [UM729] (max concentration tested 10000 nM), the drug sensitivity score in experiment [1] is 0.05; in experiment [2], 1.25; in experiment [3] it was 3.85; in experiment [4], 0. Further, the “% inhibition” value in experiment [5] was 13.2%; in experiment [6], 29%; in experiment [7], 35.4%.

Regarding `C[C@@H]1CN(Cc2ccc(F)cc2)[C@@H](C)CN1C(=O)c1cc2c(C(=O)C(=O)N(C)C)cn(C)c2cc1Cl` [Talmapimod] (max concentration tested 10000 nM), the drug sensitivity score came out at 0.11 in experiment [1], 0 in experiment [2], 6.19 in experiment [3] and 0 in experiment [4]. The “% inhibition” value was 13.9% in experiment [5], -10% in experiment [6] and 37.4% in experiment [7].

Take `Cc1nc(NC(=O)N2CCC[C@H]2C(N)=O)sc1-c1ccnc(C(C)(C)C(F)(F)F)c1` [Alpelisib] (max concentration tested 2500 nM): the drug sensitivity score is 0.35 in experiment [1], 1.18 in experiment [2], 7.32 in experiment [3] and 0 in experiment [4]. Moreover, the “% inhibition” value was found to be 13% in experiment [5], 21.2% in experiment [6] and 63.6% in experiment [7].

`CON(C)C(=O)N1N=C(c2cc(F)ccc2F)S[C@@]1(CCCN)c1ccccc1` [Filanesib] (max concentration tested 1000 nM): the drug sensitivity score is 7.81 in experiment [1], 29.1 in experiment [2], 25.7 in experiment [3] and 0 in experiment [4]. Further, the “% inhibition” value in experiment [5] was 29%; in experiment [6], 88.7%; in experiment [7], 78.3%.

Turning to `C[C@@H](Oc1cc(-n2cnc3ccc(CN4CCN(C)CC4)cc32)sc1C(N)=O)c1ccccc1C(F)(F)F` (max concentration tested 10000 nM), the drug sensitivity score was 14.6 in experiment [1], 34.6 in experiment [2], 27.3 in experiment [3] and 5.06 in experiment [4]. The results for the “% inhibition” value in experiment [5], in experiment [6] and in experiment [7] were 101%, 99.8% and 86.8%, respectively.

On to `CC(C)NC(=O)COc1cccc(-c2nc(Nc3ccc4[nH]ncc4c3)c3ccccc3n2)c1` [SLx-2119] (max concentration tested 5000 nM), for which the drug sensitivity score was determined as 3.67 in experiment [1], 2.63 in experiment [2], 13.6 in experiment [3] and 0 in experiment [4]. Besides, the figures for the “% inhibition” value in experiment [5], in experiment [6] and in experiment [7] were 48.7%, 29.4% and 83.7%, respectively.

For the compound `COC[C@H](NC(=O)c1cnc(C)s1)C(=O)N[C@@H](COC)C(=O)N[C@@H](Cc1ccccc1)C(=O)[C@@]1(C)CO1` [Oprozomib] (max concentration tested 2500 nM), the drug sensitivity score came out at 14.3 in experiment [1], 26.3 in experiment [2], 18.4 in experiment [3] and 7.1 in experiment [4]. For the same compound, the results for the “% inhibition” value in experiment [5], in experiment [6] and in experiment [7] were 98.3%, 102% and 101%, respectively.

For the compound `COc1cc(Nc2ncc(F)c(Nc3ccc4c(n3)N(COP(=O)(O)O)C(=O)C(C)(C)O4)n2)cc(OC)c1OC` [Fostamatinib] (max concentration tested 2500 nM), the drug sensitivity score in experiment [1] came out at 2.95; in experiment [2], 2.96; in experiment [3], 4.22; in experiment [4], 0. Also, the “% inhibition” value in experiment [5] is 40.4%; in experiment [6] it was 36%; in experiment [7], 67.3%.

Take `Cc1nc(N)sc1-c1ccnc(Nc2ccc(N3CCOCC3)cc2)n1` [CYC-116] (max concentration tested 10000 nM): the drug sensitivity score in experiment [1] stood at 6.5; in experiment [2], 4.97; in experiment [3], 8.36; in experiment [4], 0. Besides, the “% inhibition” value worked out at 65.9% in experiment [5], 54.2% in experiment [6] and 58.8% in experiment [7].

With `O=c1cc(N2CCOCC2)oc2c(-c3ccccc3)cccc12` (max concentration tested 100000 nM), the drug sensitivity score is 7.1 in experiment [1], 7.3 in experiment [2], 12 in experiment [3] and 2.67 in experiment [4]. Further, the “% inhibition” value is 69.6% in experiment [5], 72.3% in experiment [6] and 96.1% in experiment [7].

Consider `CC[C@@]1(O)C(=O)OCc2c1cc1n(c2=O)Cc2cc3ccccc3nc2-1` [Camptothecin] (max concentration tested 5000 nM), for which the drug sensitivity score in experiment [1] is 14.9; in experiment [2], 22.2; in experiment [3] it was 23.6; in experiment [4], 10.2. The “% inhibition” value worked out at 93.1% in experiment [5], 99.9% in experiment [6] and 99.6% in experiment [7].

`O=C(O)CSc1cc(NS(=O)(=O)c2ccc(Br)cc2)c2ccccc2c1O` [UMI-77] (max concentration tested 100000 nM): the drug sensitivity score in experiment [1] was found to be 6.44; in experiment [2] it was 14.4; in experiment [3], 18.2; in experiment [4], 4.6. In addition, the “% inhibition” value was 101% in experiment [5], 101% in experiment [6] and 102% in experiment [7].

`CN(C[C@@H]1COCCO1)S(=O)(=O)Nc1ccc2ccc3ncc(-c4cnn(C)c4)cc3c(=O)c2c1` [MK-2461] (max concentration tested 10000 nM): the drug sensitivity score in experiment [1] stood at 0.69; in experiment [2], 2.68; in experiment [3], 6.02; in experiment [4], 0. The “% inhibition” value in experiment [5] is 25.5%; in experiment [6], 55.1%; in experiment [7], 67.3%.

With `CN(C)Cc1c(C(=O)NCCOc2ccc(C(=O)NO)cc2)oc2ccccc12` [Abexinostat] (max concentration tested 10000 nM), the drug sensitivity score worked out at 16.5 in experiment [1], 20.5 in experiment [2], 24.9 in experiment [3] and 7.74 in experiment [4]. The “% inhibition” value in experiment [5] was found to be 96.2%; in experiment [6] it was 101%; in experiment [7], 101%.

As for `C[C@H]1C=C2C(=O)O[C@H]3CC[C@@H](C1)[C@@]23O` [Galiellalactone] (max concentration tested 25000 nM), the drug sensitivity score in experiment [1] turned out to be 3.82; in experiment [2] it was 7.88; in experiment [3], 2.78; in experiment [4] it was 0. Also, the “% inhibition” value in experiment [5] was 58.6%; in experiment [6] it was 93.5%; in experiment [7] it was 64.8%.

As a reminder, the % inhibition is the drop in the measured response relative to a control, in per cent.
